{"source": "patent US20150175599A1", "about": "“FAAH Inhibitors” (Ironwood Pharmaceuticals, Inc., priority 2010, published 2015)", "data": [{"molecular_target": "T1, human FAAH-1 (Homo sapiens, UniProt O00519)", "T1 sequence (O00519 1-579)": "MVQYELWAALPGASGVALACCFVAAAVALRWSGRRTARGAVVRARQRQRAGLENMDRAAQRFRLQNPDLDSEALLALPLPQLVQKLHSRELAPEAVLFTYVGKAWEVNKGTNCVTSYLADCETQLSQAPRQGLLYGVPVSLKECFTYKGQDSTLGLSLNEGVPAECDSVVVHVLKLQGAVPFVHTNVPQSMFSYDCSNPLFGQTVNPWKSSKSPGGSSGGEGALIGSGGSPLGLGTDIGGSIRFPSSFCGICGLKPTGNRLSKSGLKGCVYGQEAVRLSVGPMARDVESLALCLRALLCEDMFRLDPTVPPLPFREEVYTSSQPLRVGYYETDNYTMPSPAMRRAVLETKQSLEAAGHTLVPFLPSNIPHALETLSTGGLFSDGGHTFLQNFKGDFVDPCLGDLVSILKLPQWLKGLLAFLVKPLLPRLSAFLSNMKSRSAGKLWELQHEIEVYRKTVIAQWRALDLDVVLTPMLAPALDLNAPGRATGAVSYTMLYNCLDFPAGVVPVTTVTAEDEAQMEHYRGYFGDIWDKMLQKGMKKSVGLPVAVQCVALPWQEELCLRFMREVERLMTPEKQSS", "experiment": "Whole cell anandamide hydrolysis assay (HeLa clone 5c5 transfected with human FAAH-1)", "format": "cell-based", "details": "HeLa clone 5c5 expressing human FAAH-1; read-out: human FAAH whole cell IC50", "experimental": "FAAH activity was assayed in whole cells using methods disclosed previously (Maccarone et al., 1998 J Biol. Chem. 273:32332 and Bisogno et al., 1997 J Biol. Chem. 272:3315). In addition to the cell lines described in Maccarone et al. and Bisogno et al., MCF7 (ATCC designation HTB-22) and T84 (ATCC designation CCL-248) cell lines were also used in these assays.\ncDNA expression clone for human FAAH-1 (in pcDNA3 vector) (Genbank Accession U82535; obtained from Benjamin Cravatt, Scripps Research Institute, La Jolla, Calif.) was linearized by digestion with BglII (New England Biolabs) and transfected by calcium phosphate into human HeLa cells (ATCC catalog #CCL-2). […] Following transfection, a stable HeLa-derived clone, designated 5c5, was isolated by single colony purification and expanded and maintained in modified Eagles medium (MEM; VWR catalog #45000-300) containing 10% fetal bovine serum (FBS), 2 mM L-glutamine, and 0.5 mg/mL G-418 (Sigma catalog #G5013).\nClone 5c5 (50,000 cells in 150 μL) was seeded into 96-well plates and incubated overnight (5% CO2, 37° C.). Media was carefully replaced with 180 μL DMEM/F12 medium (VWR catalog #45000-350) containing 15 mM HEPES, pH 7.4 and 0.1% fatty acid free BSA (Sigma catalog #A0281). Then, 2 μL of 100× desired final concentrations of certain exemplary compounds described herein were made up in DMSO, added to wells containing cells, and plates were incubated at 37° C. for 10 min. Next, 20 μL of 5 μM anandamide (Cayman catalog #90050) spiked with 8 μCi of anandamide-(ethanolamine-1-[^3H]) (American Radiolabeled Chemicals, Inc., catalog #ART 626) was added to the cells and the plates were incubated for an additional 15 min at 37° C. The reactions were terminated by chilling the plates on ice and adding 20 μL of 0.5M of potassium phosphate buffer (adjusted to pH 2.1 with phosphoric acid).\nThe acidified reactions were transferred to 96-well filter plates (0.25 mL capacity/well, 1.2 micron glass fiber pre-filter packed above 0.65 micron pore-size PVDF membrane, Millipore catalog MSFCN6B50) containing 25 μL charcoal (neutral activated carbon, Fisher Scientific catalog C170-500) per well. Prior to the assay, charcoal was measured and loaded onto the plate using an aluminum 96-well column loading device (Millipore catalog MACL09625). The filter plate was assembled over an empty 96-well plate (Costar) using a centrifuge alignment frame (Millipore catalog MACF09604) to allow for collection of the filtrate in the receiver plate. The charcoal glass-fiber filter plates were pre-washed with methanol by centrifugation 650×g for 10 min). Next, 80 μL of water was added to the wells of the pre-washed 96 well charcoal filter plate. Then, 90 μL of the acidified reaction mixture was added to the water in the wells of the charcoal plate. The samples were centrifuged as above. The substrate remained bound to the charcoal, whereas the [^3H]-ethanolamine product formed flowed through and was transferred to the microplates containing scintillation cocktail and quantified in a micro-plate scintillation counter (Perkin-Elmer Microbeta). Control reactions with either no cells or cells treated with DMSO alone were performed in triplicate and used to define background (no cells) and 100% activity (DMSO alone).\nFollowing subtraction of background radioactivity, data were expressed as percent inhibition relative to 100% activity and fit with a nonlinear regression curve using GraphPad Prism Software (GraphPad Software Inc). IC50 values were calculated from the resulting dose-response curves constrained at top and bottom to 100% and 0%, respectively.", "units": {"IC50": "nM"}, "values": [{"molecule": "COc1cc(NC(=O)C(=O)c2c(C)n(Cc3ccc(Cl)cc3)c3c(OC)cccc23)ccn1", "note": "[Compound 51, 2-(1-(4-chlorobenzyl)-7-methoxy-2-methyl-1H-indol-3-yl)-N-(2-methoxypyridin-4-yl)-2-oxoacetamide]", "IC50": "100 to 1000"}, {"molecule": "COc1ccc2c(c1)c(C(=O)C(=O)Nc1ccnc(OC)c1Cl)c(C)n2Cc1ccc(Cl)cc1", "note": "[Compound 52, N-(3-chloro-2-methoxypyridin-4-yl)-2-(1-(4-chlorobenzyl)-5-methoxy-2-methyl-1H-indol-3-yl)-2-oxoacetamide]", "IC50": "100 to 1000"}, {"molecule": "COc1ccc2c(c1)c(C(=O)C(=O)Nc1ccnc(OC)c1F)c(C)n2Cc1ccc(Cl)cc1", "note": "[Compound 53, 2-(1-(4-chlorobenzyl)-5-methoxy-2-methyl-1H-indol-3-yl)-N-(3-fluoro-2-methoxypyridin-4-yl)-2-oxoacetamide]", "IC50": "< 100"}, {"molecule": "COc1ccc2c(c1)c(C(=O)C(=O)Nc1cc(OC)ncc1F)c(C)n2Cc1ccc(Cl)cc1", "note": "[Compound 54, 2-(1-(4-chlorobenzyl)-5-methoxy-2-methyl-1H-indol-3-yl)-N-(5-fluoro-2-methoxypyridin-4-yl)-2-oxoacetamide]", "IC50": "< 100"}, {"molecule": "COc1cc(NC(=O)C(=O)c2c(C)n(Cc3ccc(Cl)cc3)c3cc(Cl)c(OC)cc23)ccn1", "note": "[Compound 55, 2-(6-chloro-1-(4-chlorobenzyl)-5-methoxy-2-methyl-1H-indol-3-yl)-N-(2-methoxypyridin-4-yl)-2-oxoacetamide]", "IC50": "< 100"}, {"molecule": "COc1cc(NC(=O)C(=O)c2c(C)n(Cc3ccc(Cl)cc3)c3ccc(OC)c(OC)c23)ccn1", "note": "[Compound 56, 2-(1-(4-chlorobenzyl)-4,5-dimethoxy-2-methyl-1H-indol-3-yl)-N-(2-methoxypyridin-4-yl)-2-oxoacetamide]", "IC50": "100 to 1000"}, {"molecule": "COc1cc(NC(=O)C(=O)c2c(C)n(Cc3ccc(Cl)cc3)c3ccc(OC)c(Cl)c23)ccn1", "note": "[Compound 58, 2-(4-chloro-1-(4-chlorobenzyl)-5-methoxy-2-methyl-1H-indol-3-yl)-N-(2-methoxypyridin-4-yl)-2-oxoacetamide]", "IC50": "< 100"}, {"molecule": "COc1cc(NC(=O)C(=O)c2c(C)n(Cc3ccc(Cl)cc3)c3ccc(OC)c(F)c23)ccn1", "note": "[Compound 59, 2-(1-(4-chlorobenzyl)-4-fluoro-5-methoxy-2-methyl-1H-indol-3-yl)-N-(2-methoxypyridin-4-yl)-2-oxoacetamide]", "IC50": "< 100"}, {"molecule": "COc1cc(NC(=O)C(=O)c2c(C)n(Cc3ccc(Cl)cn3)c3cc(Cl)c(OC)cc23)ccn1", "note": "[Compound 60, 2-(6-chloro-1-((5-chloropyridin-2-yl)methyl)-5-methoxy-2-methyl-1H-indol-3-yl)-N-(2-methoxypyridin-4-yl)-2-oxoacetamide]", "IC50": "< 100"}, {"molecule": "COc1cc(NC(=O)C(=O)c2c(C)n(Cc3ccc(Cl)cn3)c3ccc(C)cc23)ccn1", "note": "[Compound 61, 2-(1-((5-chloropyridin-2-yl)methyl)-2,5-dimethyl-1H-indol-3-yl)-N-(2-methoxypyridin-4-yl)-2-oxoacetamide]", "IC50": "< 100"}, {"molecule": "COc1cc(NC(=O)C(=O)c2c(C)n(Cc3ccc(Cl)cn3)c3ccc([N+](=O)[O-])cc23)ccn1", "note": "[Compound 62, 2-(1-((5-chloropyridin-2-yl)methyl)-2-methyl-5-nitro-1H-indol-3-yl)-N-(2-methoxypyridin-4-yl)-2-oxoacetamide]", "IC50": "< 100"}, {"molecule": "COc1cc(NC(=O)C(=O)c2c(C)n(Cc3ccc(Cl)cn3)c3ccc(Cl)cc23)ccn1", "note": "[Compound 63, 2-(5-chloro-1-((5-chloropyridin-2-yl)methyl)-2-methyl-1H-indol-3-yl)-N-(2-methoxypyridin-4-yl)-2-oxoacetamide]", "IC50": "< 100"}, {"molecule": "COc1cc(NC(=O)C(=O)c2c(C)n(Cc3ccc(Cl)cn3)c3cc(F)c(OC)cc23)ccn1", "note": "[Compound 64, 2-(1-((5-chloropyridin-2-yl)methyl)-6-fluoro-5-methoxy-2-methyl-1H-indol-3-yl)-N-(2-methoxypyridin-4-yl)-2-oxoacetamide]", "IC50": "< 100"}, {"molecule": "COc1cc(NC(=O)C(=O)c2c(C)n(Cc3ccc(Cl)cn3)c3ccc(N)cc23)ccn1", "note": "[Compound 65, 2-(5-amino-1-((5-chloropyridin-2-yl)methyl)-2-methyl-1H-indol-3-yl)-N-(2-methoxypyridin-4-yl)-2-oxoacetamide]", "IC50": "< 100"}, {"molecule": "COc1cc(NC(=O)C(=O)c2c(C)n(Cc3ccc(Cl)cn3)c3ccc(N(C)C)cc23)ccn1", "note": "[Compound 66, 2-(1-((5-chloropyridin-2-yl)methyl)-5-(dimethylamino)-2-methyl-1H-indol-3-yl)-N-(2-methoxypyridin-4-yl)-2-oxoacetamide]", "IC50": "< 100"}, {"molecule": "COc1cc(NC(=O)C(=O)c2c(C)n(Cc3ccc(Cl)cn3)c3cc(OC)c(Cl)cc23)ccn1", "note": "[Compound 67, 2-(5-chloro-1-((5-chloropyridin-2-yl)methyl)-6-methoxy-2-methyl-1H-indol-3-yl)-N-(2-methoxypyridin-4-yl)-2-oxoacetamide]", "IC50": "< 100"}, {"molecule": "COc1cc(NC(=O)C(=O)c2c(C)n(Cc3ccc(Cl)cn3)c3ccccc23)ccn1", "note": "[Compound 68, 2-(1-((5-chloropyridin-2-yl)methyl)-2-methyl-1H-indol-3-yl)-N-(2-methoxypyridin-4-yl)-2-oxoacetamide]", "IC50": "< 100"}, {"molecule": "COc1ccc(Cn2c(C)c(C(=O)C(=O)Nc3ccnc(OC)c3)c3cc(C)ccc32)nc1", "note": "[Compound 69, 2-(1-((5-methoxypyridin-2-yl)methyl)-2,5-dimethyl-1H-indol-3-yl)-N-(2-methoxypyridin-4-yl)-2-oxoacetamide]", "IC50": "< 100"}, {"molecule": "COc1cc(NC(=O)C(=O)c2c(C)n(Cc3ncc(Cl)cc3Cl)c3cc(Cl)c(OC)cc23)ccn1", "note": "[Compound 70, 2-(6-chloro-1-((3,5-dichloropyridin-2-yl)methyl)-5-methoxy-2-methyl-1H-indol-3-yl)-N-(2-methoxypyridin-4-yl)-2-oxoacetamide]", "IC50": "< 100"}, {"molecule": "Cc1c(C(=O)C(=O)Nc2cccc(Cl)c2)c2cc(O)ccc2n1Cc1ccc(Cl)cc1", "note": "[Compound 71, 2-(1-(4-chlorobenzyl)-5-hydroxy-2-methyl-1H-indol-3-yl)-N-(3-chlorophenyl)-2-oxoacetamide]", "IC50": "< 100"}, {"molecule": "COc1cc(NC(=O)C(=O)c2c(C)n(Cc3ccc(Cl)cc3)c3cc(F)c(OC)cc23)ccn1", "note": "[Compound 72, 2-(1-(4-chlorobenzyl)-6-fluoro-5-methoxy-2-methyl-1H-indol-3-yl)-N-(2-methoxypyridin-4-yl)-2-oxoacetamide]", "IC50": "< 100"}, {"molecule": "COc1cc(NC(=O)C(=O)c2c(C)n(Cc3ccc(Cl)cc3)c3ccc(N)c(Cl)c23)ccn1", "note": "[Compound 73, 2-(5-amino-4-chloro-1-(4-chlorobenzyl)-2-methyl-1H-indol-3-yl)-N-(2-methoxypyridin-4-yl)-2-oxoacetamide]", "IC50": "< 100"}, {"molecule": "COc1cc(NC(=O)C(=O)c2c(C)n(Cc3ccc(Cl)cc3)c3cc(C)c(OC)cc23)ccn1", "note": "[Compound 74, 2-(1-(4-chlorobenzyl)-5-methoxy-2,6-dimethyl-1H-indol-3-yl)-N-(2-methoxypyridin-4-yl)-2-oxoacetamide]", "IC50": "< 100"}]}]}
